Assays:
BL6 mice = experiment: Formalin-evoked nocifensive behavior, whiskerpad injection pain model in mice; type: in vivo, mouse; conditions: for formalin-evoked nocifensive behavior at the 45-min time-point / formalin-evoked nocifensive behavior, time course: 0.5 mM/10 μL whiskerpad; for formalin-evoked nocifensive behavior, quantitation (in particular second phase): pre-injected into whiskerpad at 0.5 mM/10 μL, 15 min before formalin
Protocol: Compounds were tested for their effect in reducing pain using an in vivo pain model in mice. For mouse formalin-evoked irritant behavior measurements, mice were well-fed, well-rested, and tested at the same time of day, at the same time-point of their circadian rhythm. They were allowed to acclimate to a plexiglas chamber for at least 30 min before testing, and received 10 μL subcutaneous injection of 4% of formalin (diluted from an aqueous solution of commercial 37% formaldehyde with normal saline (NS)) through a 30-gauge needle into the right whiskerpad, as further detailed in Luccarini et al. (J. Pain, 2006, 7, 908-914). Normal saline was used as control injection. After injection, mice were immediately placed back into the chamber and the rubbing behavior was recorded by a private consumer-type video-camera for a 45 min observation period. The recording time was divided into 9 blocks of 5 min, and a nociceptive score was determined per block by measuring the time that the animals spent rubbing the injected area predominantly with the ipsilateral fore-paw and rarely with hind-paw. This rubbing behavior with fore-paw is evoked by pain, which is distinct from itch behavior. Behavioral analysis was conducted by observers blinded to treatment.
To investigate the effects of the specific compounds GSK205, 16-8, and 16-8/18hy on formalin-induced nociceptive behavior, mice received a single subcutaneous injection of the compounds into the whiskerpad (10 μL, dissolved in 4% DMSO) 15 min before formalin injection. Control animals received the same volume of NS, 4% DMSO.
Note the biphasic response and “clean” controls. […] This concentration had no effect on residual nocifensive behavior in Trpv4−/− mice. […] Also note that none of the compounds influenced the first phase, which was caused by the direct irritation that formalin causes on peripheral whisker-pad nerve endings.

TRPV4 = TRPV4 (Homo sapiens, UniProt Q9HBA0); experiment: TRPV4-mediated calcium influx in N2a cells with targeted expression of human TRPV4 (Ca2+ imaging, activation with 10 nM GSK101); type: cell-based; parameters: expressed in transfected cells; host or cells: N2a cells; conditions: 2.5 μM inhibitor, pre-incubation 10 min
Protocol: Compounds (GSK205, 16-12, 16-13, 16-14, 16-18, 16-8, and 16-8/18hy) were tested for their effect on TRPV4-mediated calcium influx in N2a cultured cells with targeted expression of human TRPV4. Ca2+ imaging was performed according to Li et al. (Environ. Health Perspect. 2011, 119, 784-93) and Moore et al. (Proc. Natl. Acad. Sci. U.S.A. 2013, 110, E3225-E3234). Briefly, Ca2+ imaging of primary mouse epidermal keratinocytes (1° MK) in response to chemical activation of TRPV4 was conducted after loading with 2 μM fura2-AM, following a ratiometric Ca2+-imaging protocol with 340/380 nm blue light for dual excitation. Ratios of emissions were acquired at 0.5 Hz. ΔR/R0 was determined as the fraction of the increase of a given ratio over baseline ratio, divided by baseline ratio. For stimulation of cells with UVB, where fura-2 was not suitable because of the proximity of stimulation with 340/380 nm vs. 295 nm, 2 μM fluo4-AM was used instead. Ca2+ imaging was carried out at 488 nm excitation, acquisition of emissions at 0.5 Hz, expressed as ΔF/F0. TRPV4 was activated with 10 nM GSK101, a specific activator, which had no effect on RFP-transfected cells. Each of the […] compounds were added to a concentration of 2.5 μM, and its effect was observed.
The ordinate is the peak calcium concentration in the cells (average n>75 cells) in nM.

human TRPA1 = molecular target: T1, human TRPA1 (Homo sapiens, UniProt O75762); experiment: Ca2+ transient in N2a cells transfected with human TRPA1, evoked by AITC; type: cell-based; conditions: for inhibitory activity against human TRPA1: 5 μM compound
T1 construct: expressed in transfected cells; host or cells: N2a cells
Protocol: Compounds were tested for their effect on TRPA1. N2a permanent cells were transfected with human TRPA1 cDNA, using a pcDNA3.1 expression plasmid. They were co-transfected with eGFP-expressing plasmid, or, for control, with eGFP plasmid only.
Cells were then pre-exposed to 5 μM of compounds 16-8 and 16-8/18hy for 10 min.
Averaged Ca2+ signal is shown from >75 cells. The resulting Ca2+ transient evoked by 60 μM AITC was reduced by >80% upon administration of compound 16-8 or 16-8/18hy at 5 μM, indicating appreciable TRPA1-inhibitory effects of both compounds.

mice = experiment: UVB-overexposure evoked nocifensive behavior (sunburn model), topical treatment; type: in vivo, mouse; conditions: 0.5 mM in 40 μL
Protocol: Compounds were tested for their effect on nocifensive behavior (response to pain) following UVB overexposure. Behavioral tests were performed to evaluate the decrease in withdrawal thresholds in response to mechanical von Frey hair or thermal stimuli applied to hind paws. The Von-Frey apparatus (Ugo Basile) applied a mechanical stimulus with a flexible steel wire from underneath the hind paw. The force leading to withdrawal was determined. For the thermal stimuli test, paws were stimulated with heat from underneath applied by an infrared beam (Hargreave's test apparatus; Ugo Basile), and withdrawal latencies were recorded. The withdrawal thresholds were ascertained before and after UV exposure. Mice were exposed to UVB 3-5 days after the last application of tam/oil, using a Bio-Rad Gel Doc 2000 UV transilluminator (302 nm) for 5 min with an exposure of 600 mJ/cm^2. This represents 5-10 times the minimal erythema-inducing dose, in keeping with the rationale of inducing sunburn and studying sunburn-evoked pain.

Sequence of TRPV4 (Q9HBA0 whole entry): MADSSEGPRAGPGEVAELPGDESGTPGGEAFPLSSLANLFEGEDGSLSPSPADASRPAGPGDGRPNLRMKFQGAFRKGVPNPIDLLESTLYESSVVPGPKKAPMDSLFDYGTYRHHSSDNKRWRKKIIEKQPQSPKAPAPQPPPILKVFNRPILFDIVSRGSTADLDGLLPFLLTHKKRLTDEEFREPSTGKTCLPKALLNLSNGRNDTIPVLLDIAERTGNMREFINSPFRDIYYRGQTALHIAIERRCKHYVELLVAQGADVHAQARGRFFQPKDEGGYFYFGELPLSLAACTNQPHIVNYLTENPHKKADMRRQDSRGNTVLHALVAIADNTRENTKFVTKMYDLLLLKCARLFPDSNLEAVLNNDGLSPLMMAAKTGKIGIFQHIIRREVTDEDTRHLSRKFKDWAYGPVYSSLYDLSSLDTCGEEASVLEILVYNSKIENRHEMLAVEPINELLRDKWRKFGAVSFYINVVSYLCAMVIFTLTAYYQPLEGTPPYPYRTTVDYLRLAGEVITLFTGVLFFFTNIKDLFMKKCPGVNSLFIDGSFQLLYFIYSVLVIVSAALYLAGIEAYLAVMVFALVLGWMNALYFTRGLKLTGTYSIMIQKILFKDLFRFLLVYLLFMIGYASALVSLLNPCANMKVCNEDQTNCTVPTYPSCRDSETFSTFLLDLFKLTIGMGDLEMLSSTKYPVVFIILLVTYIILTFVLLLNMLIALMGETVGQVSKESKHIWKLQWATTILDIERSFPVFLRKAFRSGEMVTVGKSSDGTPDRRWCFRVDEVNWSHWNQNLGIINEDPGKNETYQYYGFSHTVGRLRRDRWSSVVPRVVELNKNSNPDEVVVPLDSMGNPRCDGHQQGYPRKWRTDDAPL
T1 sequence (O75762 whole entry): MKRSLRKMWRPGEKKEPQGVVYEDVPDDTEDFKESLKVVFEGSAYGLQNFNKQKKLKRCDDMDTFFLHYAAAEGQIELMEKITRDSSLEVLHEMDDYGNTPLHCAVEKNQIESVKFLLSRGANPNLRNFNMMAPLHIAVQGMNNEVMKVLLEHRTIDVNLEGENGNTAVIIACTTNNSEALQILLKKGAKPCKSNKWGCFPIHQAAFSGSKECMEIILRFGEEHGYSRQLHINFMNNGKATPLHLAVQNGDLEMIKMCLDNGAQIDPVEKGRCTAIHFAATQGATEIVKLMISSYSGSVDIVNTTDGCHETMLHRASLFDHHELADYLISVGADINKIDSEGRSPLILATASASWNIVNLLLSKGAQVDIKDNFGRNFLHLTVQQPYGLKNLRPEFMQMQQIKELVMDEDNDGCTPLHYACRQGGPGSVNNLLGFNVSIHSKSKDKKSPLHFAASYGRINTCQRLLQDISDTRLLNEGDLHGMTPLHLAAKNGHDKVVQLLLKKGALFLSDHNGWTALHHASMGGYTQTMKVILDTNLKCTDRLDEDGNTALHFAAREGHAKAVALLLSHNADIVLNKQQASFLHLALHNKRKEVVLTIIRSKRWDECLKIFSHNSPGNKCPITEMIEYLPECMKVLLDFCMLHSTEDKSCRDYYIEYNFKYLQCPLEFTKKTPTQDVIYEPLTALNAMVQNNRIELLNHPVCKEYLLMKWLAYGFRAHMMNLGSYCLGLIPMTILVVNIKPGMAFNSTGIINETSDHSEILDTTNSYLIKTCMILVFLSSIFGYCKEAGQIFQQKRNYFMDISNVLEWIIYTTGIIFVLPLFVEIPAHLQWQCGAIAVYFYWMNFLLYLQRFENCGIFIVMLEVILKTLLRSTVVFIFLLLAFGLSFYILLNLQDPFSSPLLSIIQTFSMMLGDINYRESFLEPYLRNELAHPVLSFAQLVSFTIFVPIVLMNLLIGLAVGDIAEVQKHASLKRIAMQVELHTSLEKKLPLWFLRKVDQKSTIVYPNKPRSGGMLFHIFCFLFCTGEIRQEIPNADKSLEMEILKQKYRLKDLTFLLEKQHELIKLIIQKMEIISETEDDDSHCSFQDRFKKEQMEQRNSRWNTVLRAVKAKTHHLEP

With CCN(CCc1ccc(Nc2nc(-c3ccccc3)cs2)cc1)Cc1ccccc1 [16-8/18hy] as the molecule, how does the “formalin-evoked nocifensive behavior at the 45-min time-point” value (BL6 mice) read?
Its value is “reversal to control levels”.

What about the “formalin-evoked nocifensive behavior, time course” value (BL6 mice) of the same molecule?
The value was “significantly attenuated nocifensive behavior”.

What about the “formalin-evoked nocifensive behavior, quantitation (in particular second phase)” value (BL6 mice) of the same molecule?
The value was “significant attenuation of nocifensive behavior”.

And the “inhibition of TRPV4-mediated calcium influx (peak calcium concentration in the cells)” value (TRPV4)?
Its value is “did not show enhanced inhibition over 16-8”.

What about the “inhibitory activity against human TRPA1” value (human TRPA1) of the same molecule?
Its value is “showed inhibitory activity”.

Which results are given for CN(CCc1ccc(Nc2nc(-c3ccccc3)cs2)cc1)Cc1ccccc1 [Compound 16-8]?
UVB-overexposure evoked nocifensive behavior (response to pain) (mice): especially effective in reducing the response to pain; formalin-evoked nocifensive behavior at the 45-min time-point (BL6 mice): reduction to control levels; formalin-evoked nocifensive behavior, time course (BL6 mice): significantly attenuated nocifensive behavior; formalin-evoked nocifensive behavior, quantitation (in particular second phase) (BL6 mice): significant attenuation of nocifensive behavior; inhibition of TRPV4-mediated calcium influx (peak calcium concentration in the cells) (TRPV4): most potent; inhibitory activity against human TRPA1 (human TRPA1): showed inhibitory activity

For CN(CCc1ccc(Nc2nc(-c3cccnc3)cs2)cc1)Cc1ccccc1 [GSK205], which “UVB-overexposure evoked nocifensive behavior (response to pain)” value (mice) is on record?
Its value is “as effective as vehicle”.

What about the “formalin-evoked nocifensive behavior, time course” value (BL6 mice) of the same molecule?
Its value is “not different from control”.

And the “formalin-evoked nocifensive behavior, quantitation (in particular second phase)” value (BL6 mice)?
Its value is “lack of effect”.

What about the “inhibition of TRPV4-mediated calcium influx (peak calcium concentration in the cells)” value (TRPV4) of the same molecule?
The value was “very low potency”.

And the “inhibition of TRPA1 activity” value (human TRPA1; doses below or equaling 25 μM)?
Its value is “did not inhibit TRPA1 activity”.

Source: US11229628B2, “TRPA1 and TRPV4 inhibitors and methods of using the same for organ-specific inflammation and itch” (Duke University, priority 2015, dated 2022)
